pIC50: −log10 of the molar value.

This test addresses T1, Tyrosine-protein kinase JAK3 (Homo sapiens, UniProt P52333).
T1 sequence (P52333 whole entry): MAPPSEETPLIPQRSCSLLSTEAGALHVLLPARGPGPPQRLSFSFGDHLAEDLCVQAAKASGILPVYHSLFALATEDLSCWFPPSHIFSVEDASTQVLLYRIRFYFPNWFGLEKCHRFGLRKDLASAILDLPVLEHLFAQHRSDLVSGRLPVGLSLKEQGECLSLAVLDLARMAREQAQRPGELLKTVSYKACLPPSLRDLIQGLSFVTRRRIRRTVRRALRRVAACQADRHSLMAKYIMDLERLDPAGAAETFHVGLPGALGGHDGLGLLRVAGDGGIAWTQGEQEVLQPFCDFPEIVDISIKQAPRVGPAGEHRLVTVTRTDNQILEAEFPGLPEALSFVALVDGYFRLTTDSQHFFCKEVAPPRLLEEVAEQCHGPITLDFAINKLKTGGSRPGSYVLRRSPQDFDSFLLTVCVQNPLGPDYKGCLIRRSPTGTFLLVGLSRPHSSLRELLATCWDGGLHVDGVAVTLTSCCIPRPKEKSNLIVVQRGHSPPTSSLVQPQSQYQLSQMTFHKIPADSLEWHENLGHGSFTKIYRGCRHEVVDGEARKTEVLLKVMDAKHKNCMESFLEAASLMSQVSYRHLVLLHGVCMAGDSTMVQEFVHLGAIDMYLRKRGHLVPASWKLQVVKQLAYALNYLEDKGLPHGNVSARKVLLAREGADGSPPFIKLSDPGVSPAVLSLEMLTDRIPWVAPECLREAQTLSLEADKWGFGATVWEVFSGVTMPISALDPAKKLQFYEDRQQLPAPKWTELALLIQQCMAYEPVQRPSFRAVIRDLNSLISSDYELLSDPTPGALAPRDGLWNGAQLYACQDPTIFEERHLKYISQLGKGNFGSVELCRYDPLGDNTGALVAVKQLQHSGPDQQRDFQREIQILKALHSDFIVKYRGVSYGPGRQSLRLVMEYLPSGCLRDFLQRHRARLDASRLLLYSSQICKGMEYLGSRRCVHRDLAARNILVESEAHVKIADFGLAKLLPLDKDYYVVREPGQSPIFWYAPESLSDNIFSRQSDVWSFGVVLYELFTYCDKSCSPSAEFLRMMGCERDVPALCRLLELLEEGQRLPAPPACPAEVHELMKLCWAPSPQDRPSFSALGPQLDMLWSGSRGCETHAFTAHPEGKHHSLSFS
The test can be described thus: Inhibition of JAK3.
As a reminder, the pIC50 is the IC50 on a negative log10 scale, so that one unit is a factor of ten. Higher therefore signals a small IC50. `Oc1c2ccccc2c2c3c(cccc13)N=N2` [SP-600125]: the pIC50 is 6.02.

`Cc1cc(C(=O)Nc2ccc3[nH]ncc3c2)nn1-c1cccc(C(F)(F)F)c1` had a pIC50 of 5.58. Against the preceding molecule, the pIC50 is 0.44 log units lower.

On to `CN1CCN(c2ccc(Nc3ncc4[nH]nc(-c5ccccc5)c4n3)cc2)CC1`, for which the pIC50 is 7.01.

The values are drawn from ChEMBL document CHEMBL1142524, “Virtual screening to successfully identify novel janus kinase 3 inhibitors: a sequential focused screening approach” (J Med Chem, 2008).
